Structures can show the parent of a compound that is named as a salt. Where two headings read alike, the source gives them in different places.
Target: T1, Human IP6K1 (Homo sapiens, UniProt Q92551)
T1 construct: GST (N, cleaved yes); made in house; host or cells: C43 E. coli, pGEX-6P-2
Assay: IP6K1 high-throughput screen of the Sigma LOPAC (ADP-Glo Max, single point);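 also: final compound concentration 10µM in 5% DMSO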
Assay type: biochemical

[1] = LOPAC single-point screen, ADP-Glo Max raw signal per well
[2] = LOPAC single-point screen, Z-score from raw signal with plate average and StDev
[3] = LOPAC single-point screen, ADP-Glo Max luminescence raw signal per well
[4] = LOPAC single-point screen, Z-score from plate average and StDev
[5] = LOPAC single-point screen, Z-score relative to plate average and StDev
[6] = LOPAC single-point screen, Z-score against plate average and StDev
[7] = Sigma LOPAC single-point screen, ADP-Glo Max raw signal per well
[8] = Sigma LOPAC single-point screen, Z-score from plate average and StDev

T1 sequence (Q92551 whole entry): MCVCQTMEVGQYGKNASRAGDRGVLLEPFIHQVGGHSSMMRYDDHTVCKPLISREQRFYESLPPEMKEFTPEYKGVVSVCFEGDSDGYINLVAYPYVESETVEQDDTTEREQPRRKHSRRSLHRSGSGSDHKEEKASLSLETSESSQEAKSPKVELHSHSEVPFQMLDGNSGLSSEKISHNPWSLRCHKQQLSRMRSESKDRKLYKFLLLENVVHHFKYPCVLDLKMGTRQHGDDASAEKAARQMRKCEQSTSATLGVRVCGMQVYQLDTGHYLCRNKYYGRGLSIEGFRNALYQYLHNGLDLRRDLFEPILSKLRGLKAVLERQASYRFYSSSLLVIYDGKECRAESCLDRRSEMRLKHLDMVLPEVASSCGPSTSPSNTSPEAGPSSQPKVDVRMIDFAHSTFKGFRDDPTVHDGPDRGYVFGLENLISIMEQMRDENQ

`CCN(CCCl)Cc1ccccc1Br.Cl` [DSP-4 hydrochloride] was tested, and the “Raw Signal” value [1] was 57186 and the Z-score [2] was -0.1281.

For `Cc1ccc(S(=O)(=O)NC(=O)NN2CCCCCC2)cc1` [Tolazamide], the “Raw Signal” value [3] was 64192 and the Z-score [4] was 1.587.

In the case of `O=C(O)[C@@H]1CCN1` [L-azetidine-2-carboxylic acid], the “Raw Signal” value [3] is reported as 54831 and the Z-score [5] is reported as -0.5428.

`C[N+]1(C)CCOC(O)(c2ccc(-c3ccc(C4(O)C[N+](C)(C)CCO4)cc3)cc2)C1` (stereo not shown) [Hemicholinium-3] gave a Z-score [2] of -0.115.

In the case of `CC1COc2c(N3CCN(C)CC3)c(F)cc3c(=O)c(C(=O)O)cn1c23` (stereo not shown) [Ofloxacin], the “Raw Signal” value [1] is reported as 52269 and the Z-score [2] is reported as -0.357.

For `COc1ccc(CCN(C)CCc2ccc(OC)c(OC)c2)cc1OC.Cl` [YS-035 hydrochloride], the “Raw Signal” value [1] was 55463 and the Z-score [2] was -0.109.

`C[C@]12CC[C@H](O)CC1=CC[C@@H]1[C@@H]2CC[C@]2(C)C(=O)CC[C@@H]12` [trans-Dehydroandrosterone] was tested, and the “Raw Signal” value [1] was 53982 and the Z-score [2] was -0.2407.

(+)-Cyclazocine was tested, and the “Raw Signal” value [1] was 53235 and the Z-score [2] was -0.3924.

For `Cl.Nc1cc(Cl)c(N=C2NCCN2)c(Cl)c1` [p-Aminoclonidine hydrochloride], the “Raw Signal” value [1] was 56073 and the Z-score [2] was -0.3241.

For `Cl.O=C(O)C1CCCN(CCC=C(c2ccccc2)c2ccccc2)C1` (stereo not shown) [SKF 89976A hydrochloride], the “Raw Signal” value [1] was 57225 and the Z-score [6] was 0.2334.

`CC(C)Oc1cccnc1N(C)C1CCN(Cc2ccccc2)CC1.O=C(O)/C=C\C(=O)O` [U-101958 maleate] was tested, and the “Raw Signal” value [3] was 65094 and the Z-score [4] was 1.762.

With `CC1=C[C@@H]2c3cccc4[nH]cc(c34)C[C@H]2N(C)C1` [Agroclavine] the “Raw Signal” value [3] was 53866 and the Z-score [5] was -0.7128.

With `Br.CO[C@H]1CC=C2CCN3CCC4=C(CC(=O)OC4)[C@]23C1` [Dihydro-beta-erythroidine hydrobromide] the “Raw Signal” value [3] was 51044 and the Z-score [5] was -0.8373.

With `O=C1CCC(N2C(=O)c3ccccc3C2=O)C(=O)N1` (racemic) [(±)-Thalidomide] the “Raw Signal” value [1] was 54848 and the Z-score [2] was -0.2284.

For `NC(=O)c1cccc(N)c1` [3-aminobenzamide], the “Raw Signal” value [1] was 56496 and the Z-score [2] was -0.2496.

`NNCCc1ccccc1` [Phenelzine sulfate] was tested, and the “Raw Signal” value [7] was 58733 and the Z-score [8] was 0.5263.

With `CCCN1CCc2cccc3c2[C@H]1Cc1ccc(O)c(O)c1-3.Cl` [R(-)-Propylnorapomorphine hydrochloride] the “Raw Signal” value [3] was 49804 and the Z-score [5] was -1.089.

In the case of `CC(C)(C)C1(O)CCN2CC3c4ccccc4CCc4cccc(c43)C2C1.Cl` (racemic) [(±)-Butaclamol hydrochloride], the “Raw Signal” value [7] is reported as 57693 and the Z-score [8] is reported as 0.513.

`CC(C)NC[C@@H](O)c1ccc(O)c(O)c1.O=C(O)C(O)C(O)C(=O)O` [S(+)-Isoproterenol (+)-bitartrate] was tested, and the “Raw Signal” value [1] was 55551 and the Z-score [6] was 0.1945.

In the case of `CC(C)NC(C)Cc1ccc(I)cc1` (stereo not shown) [Iofetamine hydrochloride], the “Raw Signal” value [1] is reported as 55439 and the Z-score [6] is reported as 0.1757.

With `COc1cc2nc(N3CCN(C(=O)C4CCCO4)CC3)nc(N)c2cc1OC` (stereo not shown) [Terazosin hydrochloride] the “Raw Signal” value [1] was 54152 and the Z-score [2] was -0.3637.

`CCN(CC)CCCCCCCCOC(=O)c1cc(OC)c(OC)c(OC)c1.Cl` [TMB-8 hydrochloride] was tested, and the “Raw Signal” value [1] was 59541 and the Z-score [6] was 0.2867.

`CCN1CCC[C@H]1CNC(=O)c1cc(S(N)(=O)=O)ccc1OC` [(-)-Sulpiride] was tested, and the “Raw Signal” value [1] was 56775 and the Z-score [6] was 0.1459.

For `N#CCCN.N#CCCN.O=C(O)/C=C/C(=O)O` [3-Aminopropionitrile fumarate], the “Raw Signal” value [3] was 53618 and the Z-score [5] was -0.7565.

In the case of `CSc1nc(N)c2ncn([C@@H]3O[C@H](COP(=O)(O)OP(=O)(O)O)[C@@H](O)[C@H]3O)c2n1.[Na].[Na].[Na]`, the “Raw Signal” value [1] is reported as 54295 and the Z-score [6] is reported as -0.01655.

For `COC(=O)[C@H]1[C@H]2C[C@@H]3c4[nH]c5cc(OC)ccc5c4CCN3C[C@H]2C[C@@H](OC(=O)c2cc(OC)c(OC)c(OC)c2)[C@@H]1OC` [Reserpine], the “Raw Signal” value [1] was 59002 and the Z-score [6] was 0.1918.

In the case of `CC(N)c1cccc(Cl)c1Cl.Cl` (racemic), the “Raw Signal” value [1] is reported as 54173 and the Z-score [2] is reported as -0.2019.

With `O=C([O-])CCC(NC(=O)c1ccccc1C(=O)[O-])C(=O)[O-].[Na+].[Na+].[Na+]` [Phthalamoyl-L-glutamic acid trisodium] the “Raw Signal” value [7] was 58114 and the Z-score [8] was 0.4061.

`NCCCCCCCCCCN` [1,10-Diaminodecane] gave a Z-score [2] of -0.1121.

For `C[N+](C)(C)CC#CCOC(=O)Nc1cccc(Cl)c1.[Cl-]` [McN-A-343], the “Raw Signal” value [1] was 55957 and the Z-score [2] was -0.3445.

NS 521 oxalate was tested, and the “Raw Signal” value [1] was 56111 and the Z-score [6] was 0.2886.

For `N#C/C(=C\c1ccc(O)c(O)c1)C(N)=S` [Tyrphostin 47], the “Raw Signal” value [3] was 42103 and the Z-score [5] was -2.705.

`NCCCNCCCCNCCCN` [Spermine tetrahydrochloride] was tested, and the “Raw Signal” value [3] was 52988 and the Z-score [5] was -0.5898.

With `CC(C)[C@@]1(NC(=O)[C@@H]2C[C@@H]3c4cccc5[nH]cc(c45)C[C@H]3N(C)C2)O[C@@]2(O)[C@@H]3CCCN3C(=O)[C@H](Cc3ccccc3)N2C1=O.CS(=O)(=O)O` [Dihydroergocristine methanesulfonate] the “Raw Signal” value [3] was 65195 and the Z-score [4] was 2.037.

With `CC(C)(C(=O)O)c1ccc(C(O)CCCN2CCC(C(O)(c3ccccc3)c3ccccc3)CC2)cc1` (stereo not shown) [Fexofenadine hydrochloride] the “Raw Signal” value [7] was 58731 and the Z-score [8] was 0.7238.

For `NC(=O)c1ncn([C@@H]2O[C@H](CO)[C@@H](O)[C@H]2O)n1` [Ribavirin], the “Raw Signal” value [1] was 54731 and the Z-score [2] was -0.2512.

`CC(C)NCC(O)c1ccc(O)c(O)c1.Cl` (racemic) [(±)-Isoproterenol hydrochloride] was tested, and the “Raw Signal” value [7] was 57305 and the Z-score [8] was 0.4892.

With `NC(CCCP(=O)(O)O)C(=O)O` (racemic) [(±)-2-Amino-5-phosphonopentanoic acid] the “Raw Signal” value [7] was 60299 and the Z-score [8] was 0.4202.

With `CN1CCc2cccc(Cl)c2CC1` [SKF 86466] the “Raw Signal” value [1] was 54503 and the Z-score [2] was -0.2955.

`Oc1ccc(/C=C/c2cc(O)cc(O)c2)cc1` [Resveratrol] was tested, and the “Raw Signal” value [1] was 54146 and the Z-score [2] was -0.3648.

For `CCCOC(=O)c1c(-c2ccccc2)nc(CC)c(C(=O)SCC)c1CCC` [MRS 1523], the “Raw Signal” value [1] was 53053 and the Z-score [2] was -0.2252.

With `Oc1cc2c(cc1O)CN(C(=S)NCCc1ccc(Cl)cc1)CCC2` [Capsazepine] the “Raw Signal” value [1] was 54995 and the Z-score [6] was -0.03494.

In the case of `CP(=O)(O)C1=CCNCC1` [TPMPA], the “Raw Signal” value [7] is reported as 59668 and the Z-score [8] is reported as 0.708.

In the case of `O=C(O)CN(CCOCCOCCN(CC(=O)O)CC(=O)O)CC(=O)O`, the “Raw Signal” value is reported as 55582 and the Z-score is reported as 0.08428.

For `O=C1CN(/N=C/c2ccc(-c3ccc([N+](=O)[O-])cc3)o2)C(O)=N1` [Dantrolene sodium], the “Raw Signal” value [3] was 49715 and the Z-score [5] was -1.107.

In the case of `Cl.NCCNC(=O)c1ncsc1-c1cccc(F)c1` [Ro 41-1049 hydrochloride], the “Raw Signal” value [7] is reported as 60989 and the Z-score [8] is reported as 0.9646.

In the case of `Cc1ccc(S(=O)(=O)N[C@@H](Cc2ccccc2)C(=O)CCl)cc1`, the “Raw Signal” value [7] is reported as 59222 and the Z-score [8] is reported as 0.6213.

In the case of `C[C@@]1(C2CCCC2)Cc2cc(OCC(=O)O)c(Cl)c(Cl)c2C1=O` [R(+)-IAA-94], the “Raw Signal” value [3] is reported as 46670 and the Z-score [5] is reported as -1.298.

— paper PMC5706701, “Development of a homogenous high-throughput assay for inositol hexakisphosphate kinase 1 activity” (PLoS ONE, 2017)
